Results from ChEMBL document CHEMBL4138123, “Design, synthesis and biological evaluation of novel pyrazolochalcones as potential modulators of PI3K/Akt/mTOR pathway and inducers of apoptosis in breast cancer cells” (Eur J Med Chem, 2017).

Tests used:
Assay type in all cases: functional
[1] = tested on: NCI-H226; assay: Cytotoxicity against human NCI-H226 cells assessed as cell growth at 100 uM after 48 hrs by sulforhodamine B assay relative to control; settings: NCI-H226, 48 h, read-out: Activity
[2] = tested on: 786-0; assay: Cytotoxicity against human 786-0 cells assessed as growth inhibition after 48 hrs by sulforhodamine B assay; settings: 786-0, 48 h
[3] = tested on: SK-OV-3; assay: Cytotoxicity against human SKOV3 cells assessed as cell growth at 0.1 uM after 48 hrs by sulforhodamine B assay relative to control; settings: SK-OV-3, 48 h, read-out: Activity
[4] = tested on: NCI-H460; assay: Cytotoxicity against human NCI-H460 cells assessed as cell growth at 1 uM after 48 hrs by sulforhodamine B assay relative to control; settings: NCI-H460, 48 h, read-out: Activity
[5] = tested on: SW-620; assay: Cytotoxicity against human SW620 cells assessed as cell growth at 0.01 uM after 48 hrs by sulforhodamine B assay relative to control; settings: SW-620, 48 h, read-out: Activity
[6] = tested on: NCI-H226; assay: Cytotoxicity against human NCI-H226 cells assessed as cell growth at 0.01 uM after 48 hrs by sulforhodamine B assay relative to control; settings: NCI-H226, 48 h, read-out: Activity
[7] = tested on: M14; assay: Cytotoxicity against human M14 cells assessed as growth inhibition after 48 hrs by sulforhodamine B assay; settings: M14, 48 h
[8] = tested on: NCI/ADR-RES; assay: Cytotoxicity against human NCI/ADR-RES cells assessed as growth inhibition after 48 hrs by sulforhodamine B assay
[9] = tested on: M14; assay: Cytotoxicity against human M14 cells assessed as cell growth at 0.1 uM after 48 hrs by sulforhodamine B assay relative to control; settings: M14, 48 h, read-out: Activity
[10] = tested on: M14; assay: Cytotoxicity against human M14 cells assessed as cell growth at 0.01 uM after 48 hrs by sulforhodamine B assay relative to control; settings: M14, 48 h, read-out: Activity
[11] = tested on: OVCAR-4; assay: Cytotoxicity against human OVCAR4 cells assessed as cell growth at 0.1 uM after 48 hrs by sulforhodamine B assay relative to control; settings: OVCAR-4, 48 h, read-out: Activity
[12] = tested on: A498; assay: Cytotoxicity against human A498 cells assessed as cell growth at 100 uM after 48 hrs by sulforhodamine B assay relative to control; settings: A498, 48 h, read-out: Activity
[13] = tested on: SF-539; assay: Cytotoxicity against human SF539 cells assessed as cell growth at 1 uM after 48 hrs by sulforhodamine B assay relative to control; settings: SF-539, 48 h, read-out: Activity
[14] = tested on: HCT-15; assay: Cytotoxicity against human HCT15 cells assessed as cell growth at 10 uM after 48 hrs by sulforhodamine B assay relative to control; settings: HCT-15, 48 h, read-out: Activity
[15] = tested on: NCI-H460; assay: Cytotoxicity against human NCI-H460 cells assessed as growth inhibition after 48 hrs by sulforhodamine B assay; settings: NCI-H460, 48 h
[16] = tested on: SK-MEL-5; assay: Cytotoxicity against human SK-MEL-5 cells assessed as cell growth at 100 uM after 48 hrs by sulforhodamine B assay relative to control; settings: SK-MEL-5, 48 h, read-out: Activity
[17] = tested on: U-251; assay: Cytotoxicity against human U251 cells assessed as cell growth at 100 uM after 48 hrs by sulforhodamine B assay relative to control; settings: U-251, 48 h, read-out: Activity
[18] = tested on: KM12; assay: Cytotoxicity against human KM12 cells assessed as cell growth at 100 uM after 48 hrs by sulforhodamine B assay relative to control; settings: KM12, 48 h, read-out: Activity
[19] = tested on: OVCAR-8; assay: Cytotoxicity against human OVCAR8 cells assessed as cell growth at 100 uM after 48 hrs by sulforhodamine B assay relative to control; settings: OVCAR-8, 48 h, read-out: Activity
[20] = tested on: U-251; assay: Cytotoxicity against human U251 cells assessed as cell growth at 0.1 uM after 48 hrs by sulforhodamine B assay relative to control; settings: U-251, 48 h, read-out: Activity
[21] = tested on: HOP-62; assay: Cytotoxicity against human HOP62 cells assessed as growth inhibition after 48 hrs by sulforhodamine B assay; settings: HOP-62, 48 h
[22] = tested on: MOLT-4; assay: Cytotoxicity against human MOLT4 cells assessed as growth inhibition after 48 hrs by sulforhodamine B assay; settings: MOLT-4, 48 h; for CC50: read-out: LC50 (the source's name)
[23] = tested on: NCI/ADR-RES; assay: Cytotoxicity against human NCI/ADR-RES cells assessed as cell growth at 0.1 uM after 48 hrs by sulforhodamine B assay relative to control; settings: read-out: Activity
[24] = tested on: NCI/ADR-RES; assay: Cytotoxicity against human NCI/ADR-RES cells assessed as cell growth at 1 uM after 48 hrs by sulforhodamine B assay relative to control; settings: read-out: Activity
[25] = tested on: MOLT-4; assay: Cytotoxicity against human MOLT4 cells assessed as cell growth at 10 uM after 48 hrs by sulforhodamine B assay relative to control; settings: MOLT-4, 48 h, read-out: Activity
[26] = tested on: OVCAR-8; assay: Cytotoxicity against human OVCAR8 cells assessed as cell growth at 0.1 uM after 48 hrs by sulforhodamine B assay relative to control; settings: OVCAR-8, 48 h, read-out: Activity
[27] = tested on: SF-539; assay: Cytotoxicity against human SF539 cells assessed as cell growth at 0.1 uM after 48 hrs by sulforhodamine B assay relative to control; settings: SF-539, 48 h, read-out: Activity
[28] = tested on: SK-MEL-5; assay: Cytotoxicity against human SK-MEL-5 cells assessed as cell growth at 1 uM after 48 hrs by sulforhodamine B assay relative to control; settings: SK-MEL-5, 48 h, read-out: Activity
[29] = tested on: NCI-H23; assay: Cytotoxicity against human NCI-H23 cells assessed as cell growth at 0.01 uM after 48 hrs by sulforhodamine B assay relative to control; settings: NCI-H23, 48 h, read-out: Activity
[30] = tested on: OVCAR-3; assay: Cytotoxicity against human OVCAR3 cells assessed as cell growth at 1 uM after 48 hrs by sulforhodamine B assay relative to control; settings: OVCAR-3, 48 h, read-out: Activity
[31] = tested on: M14; assay: Cytotoxicity against human M14 cells assessed as cell growth at 10 uM after 48 hrs by sulforhodamine B assay relative to control; settings: M14, 48 h, read-out: Activity
[32] = tested on: HL-60(TB); assay: Cytotoxicity against human HL-60(TB) cells assessed as cell growth at 1 uM after 48 hrs by sulforhodamine B assay relative to control; settings: HL-60, 48 h, read-out: Activity
[33] = tested on: NCI-H460; assay: Cytotoxicity against human NCI-H460 cells assessed as cell growth at 100 uM after 48 hrs by sulforhodamine B assay relative to control; settings: NCI-H460, 48 h, read-out: Activity
[34] = tested on: Hs-578T; assay: Cytotoxicity against human Hs 578T cells assessed as cell growth at 100 uM after 48 hrs by sulforhodamine B assay relative to control; settings: read-out: Activity
[35] = tested on: A549; assay: Cytotoxicity against human A549/ATCC cells assessed as cell growth at 100 uM after 48 hrs by sulforhodamine B assay relative to control; settings: A549, 48 h, read-out: Activity
[36] = tested on: OVCAR-4; assay: Cytotoxicity against human OVCAR4 cells assessed as cell growth at 10 uM after 48 hrs by sulforhodamine B assay relative to control; settings: OVCAR-4, 48 h, read-out: Activity

COc1ccc(C(=O)/C=C/c2cc(-c3ccc(OC)c(OC)c3)n[nH]2)cc1OC
growth at 100 µM [1]: -5%
GI50 [2]: 1.81 µM
TGI [2]: 5.14 µM
growth at 0.1 µM [3]: 97%
growth at 1 µM [4]: 36%
growth at 0.01 µM [5]: 96%
growth at 0.01 µM [6]: 94%
GI50 [7]: 1.91 µM
TGI [7]: 4.11 µM
GI50 [8]: 3.43 µM
TGI [8]: 33.1 µM
growth at 0.1 µM [9]: 94%
growth at 0.01 µM [10]: 89%
growth at 0.1 µM [11]: 86%
growth at 100 µM [12]: -55%
growth at 1 µM [13]: 35%
growth at 10 µM [14]: -19%
GI50 [15]: 0.606 µM
TGI [15]: 4.36 µM
growth at 100 µM [16]: -96%
growth at 100 µM [17]: -53%
growth at 100 µM [18]: -74%
growth at 100 µM [19]: -15%
growth at 0.1 µM [20]: 89%
GI50 [21]: 1.73 µM
TGI [21]: 5.6 µM
GI50 [22]: 2.2 µM
TGI [22]: > 100 µM
CC50 [22]: > 100 µM
growth at 0.1 µM [23]: 102%
growth at 1 µM [24]: 89%
growth at 10 µM [25]: 5%
growth at 0.1 µM [26]: 98%
growth at 0.1 µM [27]: 89%
growth at 1 µM [28]: 86%
growth at 0.01 µM [29]: 101%
growth at 1 µM [30]: 88%
growth at 10 µM [31]: -58%
growth at 1 µM [32]: 86%
growth at 100 µM [33]: -42%
growth at 100 µM [34]: 18%
growth at 100 µM [35]: -19%
growth at 10 µM [36]: -7%

COc1cc(C(=O)/C=C/c2cc(-c3cc(OC)c(OC)c(OC)c3)n[nH]2)cc(OC)c1OC
growth at 100 µM [1]: -50%
LC50 [2]: 6.76 µM
TGI [2]: 3.25 µM
growth at 0.1 µM [3]: 95%
growth at 1 µM [4]: 89%
growth at 0.01 µM [5]: 96%
growth at 0.01 µM [6]: 99%
LC50 (concentration killing 50% of cells) [7]: 6.13 µM
TGI [7]: 3.32 µM
LC50 [8]: > 100 µM
TGI [8]: 21.4 µM
growth at 0.1 µM [9]: 109%
growth at 0.01 µM [10]: 96%
growth at 0.1 µM [11]: 95%
growth at 100 µM [12]: -98%
growth at 1 µM [13]: 66%
growth at 10 µM [14]: -71%
LC50 [15]: 9.91 µM
TGI [15]: 4.33 µM
growth at 100 µM [16]: -98%
growth at 100 µM [17]: -99%
growth at 100 µM [18]: -81%
growth at 100 µM [19]: -99%
growth at 0.1 µM [20]: 94%
LC50 [21]: 5.74 µM
TGI [21]: 2.89 µM
TGI [22]: 8.95 µM
CC50 [22]: > 100 µM
growth at 0.1 µM [23]: 106%
growth at 1 µM [24]: 95%
growth at 10 µM [25]: -4%
growth at 0.1 µM [26]: 94%
growth at 0.1 µM [27]: 91%
growth at 1 µM [28]: 86%
growth at 0.01 µM [29]: 100%
growth at 1 µM [30]: 97%
growth at 10 µM [31]: -90%
growth at 1 µM [32]: 81%
growth at 100 µM [33]: -55%
growth at 100 µM [34]: -4%
growth at 100 µM [35]: -66%
growth at 10 µM [36]: -100%

COc1cc(-c2cc(/C=C/C(=O)c3ccc(N)cc3)[nH]n2)cc(OC)c1OC
growth at 100 µM [1]: -59%
GI50 [2]: 2.04 µM
LC50 [2]: 27.6 µM
TGI [2]: 6.49 µM
growth at 0.1 µM [3]: 98%
growth at 1 µM [4]: 78%
growth at 0.01 µM [5]: 95%
growth at 0.01 µM [6]: 92%
GI50 [7]: 1.83 µM
LC50 (concentration killing 50% of cells) [7]: 8.17 µM
TGI [7]: 3.86 µM
GI50 [8]: 3.8 µM
LC50 [8]: > 100 µM
TGI [8]: 65.8 µM
growth at 0.1 µM [9]: 101%
growth at 0.01 µM [10]: 94%
growth at 0.1 µM [11]: 105%
growth at 100 µM [12]: -96%
growth at 1 µM [13]: 69%
growth at 10 µM [14]: -12%
GI50 [15]: 1.8 µM
LC50 [15]: 44.8 µM
TGI [15]: 5.1 µM
growth at 100 µM [16]: -94%
growth at 100 µM [17]: -98%
growth at 100 µM [18]: -79%
growth at 100 µM [19]: -91%
growth at 0.1 µM [20]: 94%
GI50 [21]: 1.77 µM
LC50 [21]: 8.7 µM
TGI [21]: 3.92 µM
GI50 [22]: 1.91 µM
TGI [22]: 8.51 µM
CC50 [22]: > 100 µM
growth at 0.1 µM [23]: 110%
growth at 1 µM [24]: 98%
growth at 10 µM [25]: -5%
growth at 0.1 µM [26]: 98%
growth at 0.1 µM [27]: 99%
growth at 1 µM [28]: 90%
growth at 0.01 µM [29]: 102%
growth at 1 µM [30]: 79%
growth at 10 µM [31]: -64%
growth at 1 µM [32]: 66%
growth at 100 µM [33]: -59%
growth at 100 µM [34]: 2%
growth at 100 µM [35]: -52%
growth at 10 µM [36]: -22%
